From ChEMBL document CHEMBL3739339, “Discovery of a series of 2-(pyridinyl)pyrimidines as potent antagonists of GPR40” (Medchemcomm, 2015)
Values after ≈ are worked out from the molar mass of the structure shown. Active and inactive are the calls of the source. No cut-off for these calls is given here.

Tests used:
[1] = Lipophilicity, log D of the compound at pH 7.4; assay type: physicochemical; conditions: buffer
[2] = target: Free fatty acid receptor 1 (Homo sapiens, UniProt O14842); experiment: Antagonist activity against human GPR40 expressed in HEK293s FLPIN cells assessed as elaidic acid stimulated IP1 release after 2 hrs by TR-FRET analysis; assay type: functional, cell-based
Sequence of Free fatty acid receptor 1 (Homo sapiens, UniProt O14842) (O14842 whole entry): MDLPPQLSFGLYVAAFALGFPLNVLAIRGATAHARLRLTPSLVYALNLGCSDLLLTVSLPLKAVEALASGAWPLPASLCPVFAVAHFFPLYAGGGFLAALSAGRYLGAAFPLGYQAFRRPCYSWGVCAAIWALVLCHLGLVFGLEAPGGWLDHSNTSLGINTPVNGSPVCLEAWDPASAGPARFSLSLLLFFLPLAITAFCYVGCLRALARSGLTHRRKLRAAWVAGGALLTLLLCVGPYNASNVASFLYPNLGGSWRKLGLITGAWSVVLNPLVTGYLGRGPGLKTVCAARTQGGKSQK

Rattus norvegicus [3] = organism: Rattus norvegicus; experiment: Unbound clearance in rat; assay type: ADME, organism-based; conditions: in vivo
[4] = Fraction unbound in human plasma; assay type: ADME, cell-free
Rattus norvegicus [5] = experiment: Effect on plasma insulin level in male Zucker rat at 80 mg/kg measured after 4 hrs by ELISA relative to vehicle control; assay type: ADME, organism-based; conditions: in vivo
[6] = Fraction unbound in rat plasma; assay type: ADME, cell-free
Rattus norvegicus [7] = experiment: Inhibition of NEFA-driven plasma insulin level in male Zucker rat pretreated with beta3-agonist for 30 mins at 80 mg/kg measured 4 hrs post dosing by ELISA; assay type: functional
[8] = Oral absorption in rat; assay type: ADME, organism-based; conditions: in vivo, read-out: Fabs
[9] = Solubility of compound; assay type: physicochemical
[10] = Clearance in rat; assay type: ADME, organism-based; conditions: in vivo
[11] = target: T1, Free fatty acid receptor 2 (Homo sapiens) (UniProt O15552); experiment: Antagonist activity at GPR43 (unkown origin)
T1 sequence (whole entry): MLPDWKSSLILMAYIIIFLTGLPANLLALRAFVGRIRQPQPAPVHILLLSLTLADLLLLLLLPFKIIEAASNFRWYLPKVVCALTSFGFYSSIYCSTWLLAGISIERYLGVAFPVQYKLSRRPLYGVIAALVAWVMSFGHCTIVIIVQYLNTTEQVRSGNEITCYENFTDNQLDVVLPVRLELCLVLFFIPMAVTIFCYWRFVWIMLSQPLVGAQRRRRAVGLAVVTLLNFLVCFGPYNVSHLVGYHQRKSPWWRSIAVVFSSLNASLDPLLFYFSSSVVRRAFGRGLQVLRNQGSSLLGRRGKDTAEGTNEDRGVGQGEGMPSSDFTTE

[12] = Oral bioavailability in rat; assay type: ADME, organism-based; conditions: in vivo
[13] = target: Free fatty acid receptor 1 (Rattus norvegicus, UniProt Q8K3T4); experiment: Antagonist activity against rat GPR40
Sequence of Free fatty acid receptor 1 (Rattus norvegicus, UniProt Q8K3T4) (Q8K3T4 whole entry): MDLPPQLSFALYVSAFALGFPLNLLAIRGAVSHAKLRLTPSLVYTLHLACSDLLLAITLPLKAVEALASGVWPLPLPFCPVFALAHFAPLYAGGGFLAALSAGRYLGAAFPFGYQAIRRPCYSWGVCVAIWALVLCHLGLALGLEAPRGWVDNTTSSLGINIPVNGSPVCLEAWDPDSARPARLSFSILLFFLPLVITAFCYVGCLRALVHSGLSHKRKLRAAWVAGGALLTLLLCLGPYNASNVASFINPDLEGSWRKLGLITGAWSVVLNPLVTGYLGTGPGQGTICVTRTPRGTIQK

[14] = target: Free fatty acid receptor 1 (Mus musculus) (UniProt Q76JU9); experiment: Antagonist activity against mouse GPR40
Sequence of Free fatty acid receptor 1 (Mus musculus) (Q76JU9 whole entry): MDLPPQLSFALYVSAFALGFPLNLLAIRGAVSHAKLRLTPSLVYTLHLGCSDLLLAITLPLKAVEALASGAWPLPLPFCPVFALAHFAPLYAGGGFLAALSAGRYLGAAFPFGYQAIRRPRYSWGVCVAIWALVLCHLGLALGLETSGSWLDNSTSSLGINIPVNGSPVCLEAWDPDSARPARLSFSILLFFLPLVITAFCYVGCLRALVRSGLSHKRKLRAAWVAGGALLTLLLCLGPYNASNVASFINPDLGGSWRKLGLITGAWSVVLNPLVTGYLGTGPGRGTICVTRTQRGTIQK

[15] = Volume of distribution at steady state in rat; assay type: ADME, organism-based; conditions: in vivo, read-out: Vdss
Hepatocyte = experiment: Intrinsic clearance in rat hepatocytes measured per 10^6 cells; assay type: ADME, cell-based
Rattus norvegicus [16] = experiment: Effect on plasma NEFA level in male Zucker rat at 80 mg/kg measured 4 hrs by ELISA assay relative to vehicle control; assay type: ADME, organism-based; conditions: in vivo
Liver microsome = experiment: Intrinsic clearance in human liver microsomes […]; assay type: ADME

SMILES | logD [1] | IC50 [2] [nM] | other results
OC1CN(c2cc(COc3ccc(F)c(F)c3F)nc(-c3ccccn3)n2)C1 | 2.8 | 3160 | –
Cc1cc(COc2ccccc2)nc(-c2ccccn2)n1 | 3.4 | 794 | –
COc1ccc(OCc2cc(C)nc(-c3ccccn3)n2)cc1 | 2.8 | 7940 | –
Cc1cc(COc2cc(F)cc(F)c2F)nc(-c2ccccn2)n1 | 3.4 | 501 | –
COc1cc(COc2cccc(F)c2)nc(-c2ccccn2)n1 | 3.6 | 1260 | –
CC(=O)Nc1ccccc1OCc1cc(C)nc(-c2ccccn2)n1 | 1.6 | > 39800 | –
COc1cccc(OCc2cc(C)nc(-c3ccccn3)n2)c1 | 2.9 | 2000 | –
CC(=O)Nc1ccc(OCc2cc(C)nc(-c3ccccn3)n2)cc1 | 1.9 | > 39800 | –
Cc1cc(COc2ccc(F)cc2)nc(-c2ccccn2)n1 | 3 | 631 | –
COC1(COc2cc(COc3ccc(F)c(F)c3F)nc(-c3ccccn3)n2)COC1 | 3.5 | 501 | –
Cc1cc(COc2ccccc2C#N)nc(-c2ccccn2)n1 | 2.7 | 10000 | –
Cc1cc(COc2ccc(S(C)(=O)=O)cc2)nc(-c2ccccn2)n1 | 1.5 | > 39800 | –
Cc1cc(COc2ccccc2S(C)(=O)=O)nc(-c2ccccn2)n1 | 1.5 | > 39800 | –
Cc1cc(COc2ccc(C#N)cc2)nc(-c2ccccn2)n1 | 2.6 | 31600 | –
Fc1ccc(OCc2cc(N3CC4(CCO4)C3)nc(-c3ccccn3)n2)c(F)c1F | 3.3 | 501 | –
Cc1cc(COc2cccc(S(C)(=O)=O)c2)nc(-c2ccccn2)n1 | 1.7 | > 39800 | –
c1ccc(OCc2cc(N3CCOCC3)nc(-c3ccccn3)n2)cc1 | 2.8 | 631 | –
CC(=O)Nc1cccc(OCc2cc(C)nc(-c3ccccn3)n2)c1 | 2.1 | > 39800 | –
COc1ccccc1OCc1cc(C)nc(-c2ccccn2)n1 | 2.5 | 2000 | –
CC1(CS(C)(=O)=O)CN(c2cc(COc3ccc(F)c(F)c3F)nc(-c3ccccn3)n2)C1 | 2.9 | 6310 | –
CN(C)c1cc(COc2cccc(F)c2)nc(-c2ccccn2)n1 | 3.6 | 1580 | –
CCNc1cc(COc2cccc(F)c2)nc(-c2ccccn2)n1 | 3.9 | 631 | –
Cc1cc(COc2cccc(F)c2)nc(-c2ccccn2)n1 | 3.1 | 794 | –
Cc1cc(COc2c(F)cc(F)cc2F)nc(-c2ccccn2)n1 | 3.2 | 1260 | –
Fc1ccc(OCc2cc(OCC3(F)COC3)nc(-c3ccccn3)n2)c(F)c1F | 4 | – | CL free (Rattus norvegicus [3]): 1100 mL/min/kg; fraction unbound [4]: 0.015; fraction unbound [6]: 0.017; Fa [8]: 16%; solubility [9]: 2.9 µM (≈ 1.22 µg/mL); clearance [10]: 19 mL/min/kg; bioavailability [12]: 12%; IC50 [13]: 31.6 nM; Vd [15]: 1.4 L/kg; CLint (Hepatocyte): 72 µL/min/1e6 cells; CLint (Liver microsome): 56 µL/min/mg
Cc1cc(COc2cccc(C#N)c2)nc(-c2ccccn2)n1 | 2.7 | 2510 | –
Cc1cc(COc2c(F)ccc(F)c2F)nc(-c2ccccn2)n1 | 3.1 | 1580 | –

The remaining compounds from weak to strong by IC50 [2], led by results:

logD [1] | IC50 [2] [nM] | SMILES | other results
3.2 | 501 | Cc1cc(COc2ccc(F)c(F)c2)nc(-c2ccccn2)n1 | –
3.4 | 398 | Cc1cc(COc2cc(F)c(F)c(F)c2)nc(-c2ccccn2)n1 | –
3.2 | 398 | Cc1cc(COc2cc(F)c(F)cc2F)nc(-c2ccccn2)n1 | –
3.7 | 398 | Cc1cc(COc2cccc(Cl)c2)nc(-c2ccccn2)n1 | –
2.9 | 398 | Cc1cc(COc2ccccc2F)nc(-c2ccccn2)n1 | –
3.1 | 398 | Cc1cc(COc2ccc(F)cc2F)nc(-c2ccccn2)n1 | –
3.3 | 398 | N#CCC1(COc2cc(COc3ccc(F)c(F)c3F)nc(-c3ccccn3)n2)COC1 | –
3.2 | 398 | Cc1cc(COc2cccc(F)c2F)nc(-c2ccccn2)n1 | –
3.7 | 316 | Fc1ccc(OCc2cc(OCC3COC3)nc(-c3ccccn3)n2)c(F)c1F | –
3.4 | 316 | Cc1cc(COc2ccccc2Cl)nc(-c2ccccn2)n1 | –
3.7 | 251 | Cc1cc(COc2ccc(Cl)cc2)nc(-c2ccccn2)n1 | –
4.1 | 251 | CCOc1cc(COc2cccc(F)c2)nc(-c2ccccn2)n1 | –
4.3 | 251 | Cc1cc(N/N=C/c2ccccc2)nc(-c2ccccc2)n1 | solubility [9]: < 0.3 µM
3.3 | 251 | Cc1cc(COc2ccc(F)c(F)c2F)nc(-c2ccccn2)n1 | CL free (Rattus norvegicus [3]): 380 mL/min/kg; fraction unbound [4]: 0.03; fraction unbound [6]: 0.063; Fa [8]: 59%; solubility [9]: 22 µM (≈ 7.29 µg/mL); clearance [10]: 24 mL/min/kg; bioavailability [12]: 39%; IC50 [13]: 200 nM; Vd [15]: 2.3 L/kg; CLint (Hepatocyte): 17 µL/min/1e6 cells; CLint (Liver microsome): 57 µL/min/mg
3.3 | 158 | CC1(C#N)CN(c2cc(COc3ccc(F)c(F)c3F)nc(-c3ccccn3)n2)C1 | CL free (Rattus norvegicus [3]): 540 mL/min/kg; fraction unbound [4]: 0.048; Activity (Rattus norvegicus [5]): Non-toxic; fraction unbound [6]: 0.056; inhibition in vivo at 80 mg/kg (Rattus norvegicus [7]): 70%; Fa [8]: 56%; solubility [9]: 2.9 µM (≈ 1.19 µg/mL); clearance [10]: 30 mL/min/kg; inhibition [11]: inactive; bioavailability [12]: 32%; IC50 [13]: 63.1 nM; inhibition [14]: Active; Vd [15]: 3 L/kg; CLint (Hepatocyte): 26 µL/min/1e6 cells; Activity (Rattus norvegicus [16]): Non-toxic; CLint (Liver microsome): 52 µL/min/mg
4.3 | 100 | CC(C)Nc1cc(COc2cccc(F)c2)nc(-c2ccccn2)n1 | –
4 | 79.4 | CC1(COc2cc(COc3ccc(F)c(F)c3F)nc(-c3ccccn3)n2)COC1 | –
4.3 | 25.1 | CC1(C)CN(c2cc(COc3ccc(F)c(F)c3F)nc(-c3ccccn3)n2)C1 | –
4.5 | 12.6 | Fc1ccc(OCc2cc(OCC3CCC3)nc(-c3ccccn3)n2)c(F)c1F | –
> 4.9 | 7.94 | Fc1ccc(OCc2cc(OCC(F)(F)F)nc(-c3ccccn3)n2)c(F)c1F | –
